This note sets out measurements from patent US10875855B2 (priority 2011, dated 2020).

Usually IC50 stands for the midpoint of a concentration-inhibition curve. Broadly, the EC99 is the concentration needed for an effect of 99%. Broadly, the EC50 is the midpoint of the concentration-response curve.

SMILES strings stand for the structures. Where two headings read alike, the source gives them in different places.

For test [1], the system named is influenza A virus (A/PR/8/34). Put plainly: MDCK cytopathic effect (CPE) cell protection assay, ATP detection. In kind it is cell-based. (Protection from cytopathic effect is a common read-out in antiviral testing.)
Test [2] concerns influenza A virus (A/PR/8/34). As to the kind of experiment: microbe, parasite or virus in culture. In kind it is cell-based. Conditions: for bDNA EC99 (uM), class / bDNA EC99: Table 2.
In a further test the test system is influenza virus. As to the kind of experiment: Influenza therapeutic mouse model (in vivo efficacy). Conditions: dosing @ 48 hours post infection, 30 mg/kg BID × 10 days; for Percent Survival / Percent Weight Loss (Day 8): Balb/c mice; for Percent Survival: scored 21 days; for Percent Weight Loss (Day 8): post challenge day 8; for WBP (Penh; Day 6): whole body plethysmography, enhanced pause. Details: species or system Balb/c mice.

Setting [3] is: Influenza A virus, PR/8, MDCK, 72 h, Table 1, MDCK cells, A/PR/8/34, 72 hours, 50% cell protection, mean all, class symbol, read-out: MDCK IC50.
[4] abbreviates: Influenza A virus, PR/8, MDCK, exemplary data, MDCK cell protection, read-out: IC50.
Setting [5] is: Influenza A virus, PR/8, Table 1, mean all, class symbol, read-out: bDNA EC99.
The mark [6] stands for this setting: Influenza A virus, PR/8, Table 1, viral RNA 50% of control wells, mean all, class symbol, read-out: bDNA EC50.
Where [7] appears, read: Influenza A virus, PR/8, exemplary data, bDNA, read-out: EC50.
[8] abbreviates: Table 1, MDCK cells, A/PR/8/34, 72 hours, 50% cell protection, mean all, class symbol, read-out: MDCK IC50.
Where [9] appears, read: Table 1, mean all, class symbol.
The mark [10] stands for this setting: Table 1, viral RNA 50% of control wells, mean all, class symbol, read-out: bDNA EC50.
The mark [11] stands for this setting: Influenza A virus, PR/8, MDCK, Table 2, class symbol in brackets, read-out: MDCK cell IC50 (uM), class.
[12] abbreviates: Influenza A virus, PR/8, MDCK, Table 2, comparison compounds of WO2005/095400, mean value, read-out: MDCK cell IC50.
Setting [13] is: Influenza A virus, PR/8, Table 2, class symbol in brackets, read-out: bDNA EC50 (uM), class.
The mark [14] stands for this setting: Influenza A virus, PR/8, Table 2, comparison compounds of WO2005/095400, mean value, read-out: bDNA EC50.
Setting [15] is: comparison compounds of WO2005/095400, mean value.

In the case of `CC(C)(C)[C@@H](CC(=O)O)Nc1nc(-c2c[nH]c3ncc(Cl)cc23)ncc1F` [Compound 1, (R)-3-(2-(5-Chloro-1H-pyrrolo[2,3-b]pyridin-3-yl)-5-fluoropyrimidin-4-ylamino)-4,4-dimethylpentanoic acid], the IC50 was less than 0.3 µM in test [1] (setting [3]) and 0.006 µM in test [1] (setting [4]). The EC99 is less than 0.3 µM in test [2] (setting [5]) and 0.0094 µM in test [2] (exemplary data, bDNA). Further, the figures for the EC50 in test [2] (setting [6]) and in test [2] (setting [7]) were less than 0.3 µM and 0.009 µM, respectively. Moreover, the “Percent Survival” value in the test with influenza virus is 100%. Moreover, the “Percent Weight Loss (Day 8)” value with influenza virus is 26.6%. Further, the “WBP (Penh; Day 6)” value with influenza virus came to 1.88.
On to `CC(C)(C)[C@@H](CC(=O)O)Nc1nc(-c2c[nH]c3ncc(F)cc23)ncc1F` [Compound 2, (R)-3-((5-fluoro-2-(5-fluoro-1H-pyrrolo[2,3-b]pyridin-3-yl)pyrimidin-4-yl)amino)-4,4-dimethylpentanoic acid], for which the IC50 in test [1] (setting [3]) is less than 0.3 µM; in test [1] (setting [4]), 0.004 µM. Further, the EC99 in test [2] (setting [5]) was less than 0.3 µM; in test [2] (exemplary data, bDNA) it was 0.0063 µM. Also, the values for the EC50 in test [2] (setting [6]) and in test [2] (setting [7]) were less than 0.3 µM and 0.009 µM, respectively. Besides, the “Percent Survival” value with influenza virus was found to be 100%. In addition, in the test on influenza virus, the “Percent Weight Loss (Day 8)” value worked out at 14%. In the test on influenza virus, the “WBP (Penh; Day 6)” value is given as 2.03.
Take `CC1(C(CC(=O)O)Nc2nc(-c3c[nH]c4ncc(F)cc34)ncc2F)CCCCC1` (stereo not drawn) [Compound 78, 3-(5-fluoro-2-(5-fluoro-1H-pyrrolo[2,3-b]pyridin-3-yl)pyrimidin-4-ylamino)-3-(1-methylcyclohexyl)propanoic acid]: the IC50 in test [1] (setting [3]) was less than 0.3 µM. Moreover, the EC99 in test [2] (setting [5]) lay in the range of 0.3 to 3.3 µM. In addition, in test [2] (setting [6]), the EC50 is less than 0.3 µM.
Regarding `CCOC(=O)CC(Nc1nc(-c2c[nH]c3ncc(Cl)cc23)ncc1F)C1(C)CCCCC1` (stereo not drawn) [Compound 82], the IC50 in test [1] (setting [3]) is greater than 3.3 µM. In test [2] (setting [5]), the EC99 was greater than 3.3 µM. Also, the EC50 in test [2] (setting [6]) is greater than 3.3 µM.
`CC1([C@@H](CC(=O)O)Nc2nc(-c3c[nH]c4ncc(F)cc34)ncc2F)CCC1` [Compound 87, 3-((5-fluoro-2-(5-fluoro-1H-pyrrolo[2,3-b]pyridin-3-yl)pyrimidin-4-yl)amino)-3-(1-methylcyclobutyl)propanoic acid]: the IC50 in test [1] (setting [3]) was less than 0.3 µM. Further, the EC99 in test [2] (setting [5]) is less than 0.3 µM. Also, the EC50 in test [2] (setting [6]) is less than 0.3 µM.
`CC1(C(CC(=O)O)Nc2nc(-c3c[nH]c4ncc(F)cc34)ncc2F)CCC1` (stereo not drawn) [Compound 88, 3-((5-fluoro-2-(5-fluoro-1H-pyrrolo[2,3-b]pyridin-3-yl)pyrimidin-4-yl)amino)-3-(1-methylcyclobutyl)propanoic acid]: in test [1] (setting [8]), the IC50 was less than 0.3 µM. Moreover, the “bDNA EC99 (uM)” value in test [2] (setting [9]) was “B (0.3 μM≤EC99 (mean all)≤3.3 μM)”. In addition, the EC50 in test [2] (setting [10]) is less than 0.3 µM.
For the compound `CC(C)(C)[C@@H](CC(=O)O)Nc1nc(-c2c[nH]c3ncc(C#N)cc23)ncc1F` [Compound 89, (R)-3-((2-(5-cyano-1H-pyrrolo[2,3-b]pyridin-3-yl)-5-fluoropyrimidin-4-yl)amino)-4,4-dimethylpentanoic acid], the IC50 in test [1] (setting [3]) is less than 0.3 µM. Besides, the EC99 in test [2] (setting [5]) is 0.3 to 3.3 µM. Also, in test [2] (setting [6]), the EC50 is less than 0.3 µM.
`Cc1cnc2[nH]cc(-c3ncc(F)c(N[C@H](CC(=O)O)C(C)(C)C)n3)c2c1` [Compound 90, (R)-3-((5-fluoro-2-(5-methyl-1H-pyrrolo[2,3-b]pyridin-3-yl)pyrimidin-4-yl)amino)-4,4-dimethylpentanoic acid]: the IC50 in test [1] (setting [3]) is less than 0.3 µM. For the same compound, the EC99 in test [2] (setting [5]) is 0.3 to 3.3 µM. The EC50 in test [2] (setting [6]) was less than 0.3 µM.
On to `CC1([C@@H](CC(=O)O)Nc2nc(-c3c[nH]c4ncc(F)cc34)ncc2F)CC1` [Compound 91, (R)-3-((5-fluoro-2-(5-fluoro-1H-pyrrolo[2,3-b]pyridin-3-yl)pyrimidin-4-yl)amino)-3-(1-methylcyclopropyl)propanoic acid], for which the IC50 in test [1] (setting [3]) is less than 0.3 µM. The EC50 in test [2] (setting [6]) is less than 0.3 µM. Also, the “bDNA EC99 (uM)” value in test [2] (setting [9]) is listed as “B (0.3 μM≤EC99 (mean all)≤3.3 μM)”.
Turning to `CC1([C@@H](CC(=O)O)Nc2nc(-c3c[nH]c4ncc(F)cc34)ncc2F)CC1` [Compound 92], the IC50 in test [1] (setting [8]) lay within 0.3 to 3.3 µM. The “bDNA EC99 (uM)” value in test [2] (setting [9]) was “C (EC99 (mean all)>3.3 μM)”. In test [2] (setting [10]), the EC50 lay within 0.3 to 3.3 µM.
Consider `COC(=O)C[C@@H](Nc1nc(-c2n[nH]c3ncc(Cl)cc23)ncc1F)C(C)(C)C` [Compound 96], for which the IC50 in test [1] (setting [3]) is less than 0.3 µM. The EC99 in test [2] (setting [5]) lay in the range of 0.3 to 3.3 µM. In test [2] (setting [6]), the EC50 is less than 0.3 µM.
For the compound `CC(C)(C)[C@@H](CC(=O)O)Nc1nc(-c2n[nH]c3ncc(Cl)cc23)ncc1F` [Compound 97, (R)-3-((2-(5-chloro-1H-pyrazolo[3,4-b]pyridin-3-yl)-5-fluoropyrimidin-4-yl)amino)-4,4-dimethylpentanoic acid], the IC50 in test [1] (setting [3]) is less than 0.3 µM. Moreover, in test [2] (setting [5]), the EC99 was less than 0.3 µM. Moreover, the EC50 in test [2] (setting [6]) is less than 0.3 µM.
`CNC(=O)[C@H](C)Nc1nc(-c2c[nH]c3ncc(Cl)cc23)ncc1F` [Compound C3, reference compound]: the IC50 in test [1] (setting [11]) is greater than 3.3 µM; in test [1] (setting [12]) it was greater than 20 µM. The results for the EC50 in test [2] (setting [13]) and in test [2] (setting [14]) were greater than 3.3 µM and 3.38 µM, respectively. For the same compound, the “bDNA EC99 (uM), class” value in test [2] (class symbol in brackets) is “C (EC99 (mean all)>3.3 μM)”. Further, the “bDNA EC99” value in test [2] (setting [15]) amounted to 9.37 µM.
On to `C[C@@H](CC(=O)O)Nc1nc(-c2c[nH]c3ncc(Cl)cc23)ncc1F` [Compound C4, reference compound], for which the half-maximal inhibitory concentration (IC50) in test [1] (setting [11]) was 0.3 to 3.3 µM; in test [1] (setting [12]), 2.33 µM. The EC50 in test [2] (setting [13]) was greater than 3.3 µM; in test [2] (setting [14]), 6.4 µM. Also, the “bDNA EC99 (uM), class” value in test [2] (class symbol in brackets) was “C (EC99 (mean all)>3.3 μM)”. In addition, the “bDNA EC99” value in test [2] (setting [15]) was greater than 16.7 µM.
